Measured values: publication PMC3493566 (2012)
*1 amine or outer side, *2 acyl side, *3 side chain or, on linkers, in order; H or OH if unused. Where a SMILES comes first, the peptide text is derived from it. Bridges are numbered along the chain shown (N, C = ends). Roman numbers before positions name the chains, in order. [ ]: non-standard residue; d: D form. Actinocin(9to1) = Cc1c2oc3c(C)ccc(C(=O)[*:1])c3nc-2c(C(=O)[*:2])c(N)c1=O; NMeV = CN[C@H](C(=O)O)C(C)C; Sar = CNCC(=O)O

What was measured:
[1] = tested on: 5'-biotin-labeled hairpin DNA duplex (DNA, hairpin) AAAGCTTTTGTAAAGCTTT; test: SPR (BIAcore), ka/kd; details: 50 mM NaCl; 20 mM Tris-HCl pH 7.3, no spermine
[2] = tested on: d(TTTGCAAA) duplex (DNA, duplex) TTTGCAAA; test: UV melting at 260 nm; details: Na+ (20 mM sodium cacodylate); pH 7.3, 4 µM duplex, no spermine; ACTD concentration not stated

Ka [1]: 2.48 ± 0.17 × 10^6 M^-1 | Tm [2]: 6.3 °C
Structure (SMILES): Cc1c2oc3c(C)ccc(C(=O)N[C@@H]4C(=O)N[C@H](C(C)C)C(=O)N5CCC[C@H]5C(=O)N(C)CC(=O)N(C)[C@@H](C(C)C)C(=O)O[C@@H]4C)c3nc-2c(C(=O)N[C@@H]2C(=O)N[C@H](C(C)C)C(=O)N3CCC[C@H]3C(=O)N(C)CC(=O)N(C)[C@@H](C(C)C)C(=O)O[C@@H]2C)c(N)c1=O (I: T[dV]P[Sar][NMeV] / II: T[dV]P[Sar][NMeV]; ester I:1-I:C, II:1-II:C; linker I:N-II:N via Actinocin(9to1))
